# Measurements reported in US8895600B2, “Non peptidic 14-3-3 inhibitors and the use thereof” (Università degli Studi di Siena, priority 2010, dated 2014).
# Assays:
# [1] = tested on: c-Abl / 14-3-3σ signalling in wt Bcr-Abl-expressing Ba/F3 cells; assay: Western blot and IP/immunoblotting of sub-cellular fractions, wt Bcr-Abl Ba/F3; format: cell-based, murine; settings: 24 h, 1 μM IM or 5 μM BV02; for interaction between c-Abl and 14-3-3σ: IP/immunoblotting
# Procedure: Nuclear lysates were obtained from naked nuclei recovered from 2×10^7 cells kept in buffer B (10 mM NaCl, 5 mM MgCl2, 10 mM phosphate buffer and 0.1% Tergitol-type detergent NP40 [all from Sigma] supplemente with protease inhibitors) by means of 3 sonication rounds (10′ pulses using a Hight Intensity Ultrasonic Processor/Sonicator from Cole Parmer [Vernon Hills, Ill., USA] equipped with 2 mm tips). Mitochondrial membranes were separated from whole cell lysates by 30′ centrifugation at 14,000 g in 2 mL buffer C (20 mM Hepes pH 7.5, 1.5 mM MgCl2, 10 mM KCl, 1 mM EDTA, 1 mM EGTA, 1 mM dithiothreitol, 0.1% PMS and protease inhibitors in 250 mM sucrose) at 4° C.
# Proteins or IP products obtained through overnight incubation with primary antibodies in Buffer D (250 mM NaCl, 15 mM MgCl2 40 mM Hepes, 60 mM glycerophosphate supplemented with protease inhibitors) were resolved in SDSPAGE. Gels were then transferred onto nitrocellulose membranes (Schleicher & Schuel, Dassel, Germany), labelled with primary and secondary antibodies in TBS with 5% BSA (Sigma) and 0.1% Tween20 (Sigma). The antibodies were purchased from Upstate Biotechnology (Lake Placid, N.Y., USA), Cell Signalling (Danvers, Mass., USA) and Santa Cruz Biotechnology (Santa Cruz, Calif., USA). Signals were visualized by the enhanced chemo-luminescence detection system ECL from Pierce (Rockford, Ill., USA). Signal intensities in single blots obtained from three individual experiments were quantified by mean of a dedicated software (Launch VisionWorks LS, Upland, Calif., USA).
# (§1) The statistical significance of differences in signal intensities relative to cell treatments was assessed by mean of paired Student's t-test; p<0.05 was kept as limit for statistical significance.
# [2] = tested on: Ba/F3 cells expressing the T315I Bcr-Abl mutation; assay: Clonogenic assay (0.9% methylcellulose), Ba/F3 T315I Bcr-Abl; format: cell-based, murine; settings: Ba/F3 p210Bcr-Abl T315I, dose reducing cell clonogenic potential to 50%
# Text: (§2) Parental pro-B murine cell line Ba/F3 and clones expressing the wt and T315I and E255K-mutated Bcr-Abl constructs were kindly donated by Michael W Deininger (Department of Hematology and Clinical Oncology, Health and Science University, Cancer Institute, Portland, Oreg., USA). […] Indirect immuno-magnetic labeling (mini-MACS from Milteny Biotech, Bergish Gladback, Germany) was used to isolate CD34+ hematopoietic progenitors from bone marrow samples of 3 CML patients in blast crisis who developed IM resistance. Patient informed consent to use bone marrow samples for our experimental studies was approved by the Ethical Committee of S. Orsola-Malpighi Hospital (Bologna, Italy). The content of CD34+ cells in each sample was measured by cytofluorimetric analysis of CD34 expression with a FacScan (Becton Dickinson, Franklin Land, PI, USA).
# (§3) Briefly, the authors assessed the reduction of colony (aggregates containing >50 cells generated in 0.9% methylcellulose supplemented with 30% FCS) number in Bcr-Abl-expressing Ba/F3 cell lines and CD34+ in presence of BV02 increasing doses after 7 or 14 day incubation, respectively, at 37° C. in fully humidified atmosphere and 5% CO2. Linear and non linear regression analyses were used to calculate BV02 LD50 in Bcr-Ablexpressing Ba/F3 cell lines and CD34+ progenitors from CML patients, respectively.
# (§4) PI uptake was measured by mean of a FACScan flow cytometer set at >580 nm and a dedicated software (both from Beckton Dickinson, San Jose, Calif., USA). Caspase-8 activity was detected with a commercial kit (Carboxyfluorescein FLICA Apoptosis Detection kits from Immunochemistry Technologies LLC, Bloomington, Minn., USA) according to manufacturer instructions. […] Apoptosis was quantified as the level of fluorescence emitted from FLICA probes bound to caspases. […] Caspase-8 activity was quantified by mean of a dedicated software (DIVA from Becton Dickinson). Cell response to BV-01 and BV-02 was evaluated in clonogenic assays (0.9% methylcellulose additioned with drug scalar doses) (see Methods above for methodological details).
# [3] = tested on: Ba/F3 Parental cells (lacking Bcr-Abl); assay: Clonogenic assay (0.9% methylcellulose), parental Ba/F3; format: cell-based, murine; settings: dose reducing cell clonogenic potential to 50%
# Text: (§5) Parental pro-B murine cell line Ba/F3 and clones expressing the wt and T315I and E255K-mutated Bcr-Abl constructs were kindly donated by Michael W Deininger (Department of Hematology and Clinical Oncology, Health and Science University, Cancer Institute, Portland, Oreg., USA). They were maintained in RPMI medium (Gibco, Paisley, 9 JPET#172536 UK) supplemented with 10% FCS (Gibco), 1% I-glutamine (Sigma, St. Louis, Miss., USA) and 10% WEHI 3 conditioned medium as source of IL-3 when required. […] The content of CD34+ cells in each sample was measured by cytofluorimetric analysis of CD34 expression with a FacScan (Becton Dickinson, Franklin Land, PI, USA). […] BV02 cytotoxicy was assayed in clonogenic assays, the best in vitro technique to quantify drug impact on cell reproductive integrity.
# (§6) Briefly, the authors assessed the reduction of colony (aggregates containing >50 cells generated in 0.9% methylcellulose supplemented with 30% FCS) number in Bcr-Abl-expressing Ba/F3 cell lines and CD34+ in presence of BV02 increasing doses after 7 or 14 day incubation, respectively, at 37° C. in fully humidified atmosphere and 5% CO2. […]
# (§7) Cell cycle distribution was performed on 1×10^6 cells fixed overnight in 70% ethanol and treated with 1 μg/μL 11 JPET#172536 PI and RNAse (Sigma) at 37° C. for 30′. […] Apoptosis was quantified as the level of fluorescence emitted from FLICA probes bound to caspases. […]
# [4] = tested on: Ba/F3 cells expressing the wild type Bcr-Abl protein; assay: Apoptosis induction, cytofluorimetric Annexin V and PI uptake, wt Bcr-Abl; format: cell-based, murine; settings: IM 1 μM for 24 h, BV02 5 μM for 24 h
# [5] = tested on: Ba/F3 cells expressing T315I mutation; assay: Apoptosis induction, cytofluorimetric Annexin V and PI uptake, T315I; format: cell-based, murine; settings: IM 1 μM for 24 h, BV02 5 μM for 24 h
# Procedure: as §3, with “respectively. Apoptosis induction and involved signals were assayed in Bcr-Abl-expressing Ba/F3 cell lines after 24 h exposure to 1 μM IM and 5 μM BV02 by means of cytofluorimetric analysis of Annexin V (Hoffmann-La Roche, Basel, SW) and PI (Sigma) uptake, Western blot and IP/immunoblotting analyses, according to published methods (Mancini, 2009).” for “respectively.”
# [6] = tested on: CD34+ cells from bone marrow of CML patients in blast crisis with T315I mutation; assay: Clonogenic assay on CD34+ progenitors of IM-resistant CML patients; format: cell-based, human; settings: three CML patients in blast crisis
# Text: as §5, with “required. Indirect immuno-magnetic labeling (mini-MACS from Milteny Biotech, Bergish Gladback, Germany) was used to isolate CD34+ hematopoietic progenitors from bone marrow samples of 3 CML patients in blast crisis who developed IM resistance.” for “required.”
# as §6
# [7] = tested on: c-Abl / 14-3-3σ signalling in Ba/F3 cells expressing T315I Bcr-Abl mutation; assay: Western blot and IP/immunoblotting of sub-cellular fractions, T315I Bcr-Abl Ba/F3; format: cell-based, murine
# Procedure: Briefly, the authors assessed the reduction of colony (aggregates containing >50 cells generated in 0.9% methylcellulose supplemented with 30% FCS) number in Bcr-Abl-expressing Ba/F3 cell lines and CD34+ in presence of BV02 increasing doses after 7 or 14 day incubation, respectively, at 37° C. in fully humidified atmosphere and 5% CO2. Linear and non linear regression analyses were used to calculate BV02 LD50 in Bcr-Ablexpressing Ba/F3 cell lines and CD34+ progenitors from CML patients, respectively. […]
# Proteins or IP products obtained through overnight incubation with primary antibodies in Buffer D (250 mM NaCl, 15 mM MgCl2 40 mM Hepes, 60 mM glycerophosphate supplemented with protease inhibitors) were resolved in SDSPAGE. […] Signals were visualized by the enhanced chemo-luminescence detection system ECL from Pierce (Rockford, Ill., USA). Signal intensities in single blots obtained from three individual experiments were quantified by mean of a dedicated software (Launch VisionWorks LS, Upland, Calif., USA).
# as §1
# [8] = tested on: Ba/F3 cells expressing the wild type Bcr-Abl; assay: Clonogenic assay (0.9% methylcellulose), Ba/F3 wt Bcr-Abl; format: cell-based, murine; settings: Ba/F3 p210Bcr-Abl WT, dose reducing cell clonogenic potential to 50%
# Text: as §2, §3, §4
# [9] = tested on: Ba/F3 cells expressing the Bcr-Abl mutation coding for E255K; assay: Clonogenic assay (0.9% methylcellulose), Ba/F3 E255K Bcr-Abl; format: cell-based, murine; settings: Ba/F3 p210Bcr-Abl E255K; dose reducing cell clonogenic potential to 50%
# Text: as §5, §6, §7
# 14-3-3σ = target: T1, 14-3-3σ (Homo sapiens, UniProt P31947); assay: Transferred NOE (tr-NOEs) NMR binding experiment; settings: 298K; protein concentration 10 fold less than ligand
# T1 sequence (P31947 1-248): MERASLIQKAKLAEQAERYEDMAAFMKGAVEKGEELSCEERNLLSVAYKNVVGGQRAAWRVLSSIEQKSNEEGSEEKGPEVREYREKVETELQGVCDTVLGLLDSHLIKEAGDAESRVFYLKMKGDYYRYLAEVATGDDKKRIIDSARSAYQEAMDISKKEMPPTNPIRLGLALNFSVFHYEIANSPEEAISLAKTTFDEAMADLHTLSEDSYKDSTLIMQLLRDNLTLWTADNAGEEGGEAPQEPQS
# Procedure: The binding ability of BV-01 was analyzed by transferred Nuclear Overhauser Enhancement experiments (tr-NOEs). Experiments were recorded (at 298K on Bruker Avance 600) both on the free ligand and in the presence of protein in concentration 10 fold less than ligand. In the tr-NOEs experiments, only ligands in fast exchange between the bound and the free form are observed. Since the NOE effects are directly related to the size of the molecule in solution, by binding to the protein, the ligands NOE change in intensity and appearance allowing an easy detection of the binding.
smiles,measurement,setting,value
Cc1c(NC(=O)c2cc(C(=O)O)ccc2C(=O)O)c(=O)n(-c2ccccc2)n1C [BV-02],interaction between c-Abl and 14-3-3σ,[1]; cytoplasm,mediates c-Abl release from 14-3-3σ
same,interaction between c-Abl and 14-3-3σ,"[1]; cytoplasm, listed as BV02",reduction
same,c-Abl (145 kDa) level,[1]; cytoplasm,reduction
same,c-Abl interaction with caspase 9,[1]; cytoplasm,increase
same,c-Abl phosphorylation at Tyr245,[1]; cytoplasm,not affected
same,caspase 9 (p35) and caspase 8 (p18) activated fragments,[1]; cytoplasm,increase
same,levels of 14-3-3σ,[1]; cytoplasm,left steady
same,phosphorylation of p210 Bcr-Abl at Tyr245,[1]; cytoplasm,did not significantly affect
same,"c-Abl (145 and 60 kDa), caspase 9 (p35), caspase 8 (p18) and t-Bid (p15) at mitochondrial membranes",[1]; mitochondrial membranes,significantly raised
same,c-Abl (145 and 120 kDa) and p27kip1 in the nuclear compartment,[1]; nuclear compartment,significantly increased
same,LD50,[2],1.47 µM
same,LD50,[2]; listed as BV02,1.47 ± 0.12 µM
same,LD50,[3],1.08 µM
same,apoptosis induction (impact on survival),[4],statistically significant impact
same,apoptosis induction (impact on survival),[5],statistically significant impact
same,cytotoxicity in CD34+ cells (survival curves),[6],confirmed
same,"c-Abl release from 14-3-3σ, relocation and apoptotic events",[7]; T315I Ba/F3,elecited all above mentioned events
same,Tyr245 phosphorylation of normal and Bcr-rearranged c-Abl,[7]; T315I Ba/F3 after exposure to BV02,slight increase
same,LD50,[8],1.04 µM
same,LD50,[8]; listed as BV02,1.04 ± 0.09 µM
same,LD50,[9],1.21 µM
"Cc1ccc(NC(=O)c2ccc(CN3CCN(C)CC3)cc2)cc1Nc1nccc(-c2cccnc2)n1 [Imatinib, reference compound]",apoptosis induction (impact on survival),[5],not on survival of Ba/F3 cells expressing T315I mutation
CCCCCCOC(=O)c1ccc(Nc2c([N+](=O)[O-])cc(C(=O)O)cc2[N+](=O)[O-])cc1 [BV-01],LD50,[2],1.70 µM
same,LD50,[3],1.89 µM
same,LD50,[8],1.41 µM
same,LD50,[9],1.28 µM
same,tr-NOEs pattern (binding to 14-3-3σ),14-3-3σ,weak interaction
